In brackets after ≈: the same amount, converted by molar mass.
How the values were obtained:
[1] = target: T1, Nuclear receptor ROR-gamma (Homo sapiens, UniProt P51449); test: Transactivation of recombinant GAL4-DBD fused RORgammat LBD (unknown origin) expressed in HEK293T cells incubated for 18 to 24 hrs by dual-Glo luciferase assay; type: cell-based
T1 sequence (P51449 whole entry): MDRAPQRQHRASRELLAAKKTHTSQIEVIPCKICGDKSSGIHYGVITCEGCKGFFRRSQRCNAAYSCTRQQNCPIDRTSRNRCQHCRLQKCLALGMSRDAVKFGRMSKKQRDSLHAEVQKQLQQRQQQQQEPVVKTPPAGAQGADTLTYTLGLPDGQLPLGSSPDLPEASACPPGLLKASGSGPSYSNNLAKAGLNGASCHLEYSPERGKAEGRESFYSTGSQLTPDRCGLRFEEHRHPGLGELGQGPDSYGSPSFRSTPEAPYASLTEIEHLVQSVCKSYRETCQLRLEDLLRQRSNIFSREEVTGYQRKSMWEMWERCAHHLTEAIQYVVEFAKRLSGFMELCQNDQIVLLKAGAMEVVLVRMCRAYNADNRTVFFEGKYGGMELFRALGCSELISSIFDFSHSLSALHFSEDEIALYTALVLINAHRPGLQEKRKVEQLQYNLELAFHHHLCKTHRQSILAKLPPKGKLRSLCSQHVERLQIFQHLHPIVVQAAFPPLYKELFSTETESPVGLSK

[2] = Tmax in mouse at 10 mg/kg, po; type: ADME, organism-based; details: in vivo
[3] = Cmax in mouse at 10 mg/kg, po; type: ADME, organism-based; design: dose 10 mg/kg, route oral; details: in vivo
[4] = Metabolic stability in rat liver microsomes assessed as parent compound remaining at 1 uM preincubated for 5 mins followed by NADPH addition after 30 mins by LC-MS/MS analysis; type: ADME, Microsome; details: read-out: Stability
[5] = target: T2, Nuclear receptor ROR-alpha (Homo sapiens, UniProt P35398); test: Inhibition of GAL4-DBD fused RORalpha LBD (unknown origin) expressed in HEK293T cells; type: cell-based
T2 sequence (P35398 whole entry): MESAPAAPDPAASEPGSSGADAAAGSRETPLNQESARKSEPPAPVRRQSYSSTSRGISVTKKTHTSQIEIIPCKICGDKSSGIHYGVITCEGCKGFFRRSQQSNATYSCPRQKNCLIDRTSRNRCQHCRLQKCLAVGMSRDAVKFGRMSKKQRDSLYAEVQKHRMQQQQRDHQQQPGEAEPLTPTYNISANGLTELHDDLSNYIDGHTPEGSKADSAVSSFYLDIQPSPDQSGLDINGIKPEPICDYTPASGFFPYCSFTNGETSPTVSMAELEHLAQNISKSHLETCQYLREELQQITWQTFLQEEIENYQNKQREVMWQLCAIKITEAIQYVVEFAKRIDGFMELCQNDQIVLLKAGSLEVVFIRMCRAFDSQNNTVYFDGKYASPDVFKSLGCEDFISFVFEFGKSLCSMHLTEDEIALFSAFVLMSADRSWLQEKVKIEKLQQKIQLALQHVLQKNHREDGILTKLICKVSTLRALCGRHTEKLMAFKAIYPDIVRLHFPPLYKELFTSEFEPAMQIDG

Cytochrome P450 2D6 = Cytochrome P450 2D6 (Homo sapiens, UniProt P10635); test: Inhibition of CYP2D6 in human liver microsomes using dextromethorphan as substrate preincubated for 5 mins followed by NADPH addition measured after 10 mins by LC-MS/MS analysis
Cytochrome P450 2C19 = Cytochrome P450 2C19 (Homo sapiens, UniProt P33261); test: Inhibition of CYP2C19 in human liver microsomes using (S)-mephenytoin as substrate preincubated for 5 mins followed by NADPH addition measured after 40 mins by LC-MS/MS analysis
[6] = Metabolic stability in human liver microsomes assessed as parent compound remaining at 1 uM preincubated for 5 mins followed by NADPH addition after 30 mins by LC-MS/MS analysis; type: ADME, Microsome; details: read-out: Stability
[7] = Clearance in mouse at 3 mg/kg, iv; type: ADME, organism-based; details: in vivo
[8] = Oral bioavailability in mouse at 10 mg/kg; type: ADME, organism-based; details: in vivo
Cytochrome P450 1A2 = target: T3, Cytochrome P450 1A2 (Homo sapiens, UniProt P05177); test: Inhibition of CYP1A2 in human liver microsomes using phenacetin as substrate preincubated for 5 mins followed by NADPH addition measured after 10 mins by LC-MS/MS analysis
T3 sequence (P05177 whole entry): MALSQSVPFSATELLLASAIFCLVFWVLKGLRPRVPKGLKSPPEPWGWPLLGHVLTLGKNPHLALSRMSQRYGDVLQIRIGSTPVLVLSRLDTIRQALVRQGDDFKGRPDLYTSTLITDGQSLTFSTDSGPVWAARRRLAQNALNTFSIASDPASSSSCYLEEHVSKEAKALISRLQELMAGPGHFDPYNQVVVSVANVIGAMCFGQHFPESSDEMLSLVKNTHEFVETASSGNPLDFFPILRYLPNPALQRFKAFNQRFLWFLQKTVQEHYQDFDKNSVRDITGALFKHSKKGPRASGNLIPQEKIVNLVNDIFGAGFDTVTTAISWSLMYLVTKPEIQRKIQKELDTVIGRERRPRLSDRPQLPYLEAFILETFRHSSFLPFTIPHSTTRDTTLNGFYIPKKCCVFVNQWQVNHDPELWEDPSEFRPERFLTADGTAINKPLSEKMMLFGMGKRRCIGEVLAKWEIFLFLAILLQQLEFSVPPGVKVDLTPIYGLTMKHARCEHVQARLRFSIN

[9] = Half life in mouse at 3 mg/kg, iv; type: ADME, organism-based; details: in vivo
[10] = AUC (0 to 24 hrs) in mouse at 10 mg/kg, po; type: ADME, organism-based; design: dose 10 mg/kg, time < 24 hr, route oral; details: in vivo
Cytochrome P450 2C9 = Cytochrome P450 2C9 (Homo sapiens, UniProt P11712); test: Inhibition of CYP2C9 in human liver microsomes using diclofenac as substrate preincubated for 5 mins followed by NADPH addition measured after 10 mins by LC-MS/MS analysis
[11] = Metabolic stability in mouse liver microsomes assessed as parent compound remaining at 1 uM preincubated for 5 mins followed by NADPH addition after 30 mins by LC-MS/MS analysis; type: ADME, Microsome; details: read-out: Stability
[12] = Volume of distribution at steady state in mouse at 3 mg/kg, iv; type: ADME, organism-based; details: in vivo, read-out: Vdss
[13] = target: T4, Nuclear receptor ROR-gamma (Mus musculus) (UniProt P51450); test: Transrepression of RORgammat in Balb/c mouse splenocytes assessed as inhibition of anti-CD3/anti-CD28 stimulated IL-17 gene expression at 30 uM measured after 24 hrs in presence of anti-CD3/anti-CD28; type: cell-based
T4 sequence (whole entry): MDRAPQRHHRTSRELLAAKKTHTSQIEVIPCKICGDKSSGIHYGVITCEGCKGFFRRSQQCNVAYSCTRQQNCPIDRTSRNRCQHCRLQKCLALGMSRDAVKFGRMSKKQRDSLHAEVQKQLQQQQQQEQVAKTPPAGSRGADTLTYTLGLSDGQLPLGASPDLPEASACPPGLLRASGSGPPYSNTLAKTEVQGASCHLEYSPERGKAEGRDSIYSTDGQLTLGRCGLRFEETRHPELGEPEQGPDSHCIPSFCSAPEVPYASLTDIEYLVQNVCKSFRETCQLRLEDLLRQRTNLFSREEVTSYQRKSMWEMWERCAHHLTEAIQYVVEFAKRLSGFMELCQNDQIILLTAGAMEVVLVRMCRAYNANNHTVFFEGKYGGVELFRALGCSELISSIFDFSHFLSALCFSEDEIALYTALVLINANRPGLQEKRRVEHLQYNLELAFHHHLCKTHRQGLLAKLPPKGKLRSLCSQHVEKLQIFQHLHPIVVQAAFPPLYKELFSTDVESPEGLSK

[14] = target: T4, Nuclear receptor ROR-gamma (Mus musculus); test: Transrepression of RORgammat in Balb/c mouse splenocytes assessed as inhibition of anti-CD3/anti-CD28 stimulated IL-17 gene expression at 0.3 uM measured after 24 hrs in presence of anti-CD3/anti-CD28; type: cell-based
[15] = target: T4, Nuclear receptor ROR-gamma (Mus musculus); test: Transrepression of RORgammat in Balb/c mouse splenocytes assessed as inhibition of anti-CD3/anti-CD28 stimulated IL-17 gene expression at 3 uM measured after 24 hrs in presence of anti-CD3/anti-CD28; type: cell-based
Cytochrome P450 3A4 [16] = target: T5, Cytochrome P450 3A4 (Homo sapiens, UniProt P08684); test: Inhibition of CYP3A4 in human liver microsomes using testosterone as substrate preincubated for 5 mins followed by NADPH addition measured after 10 mins by LC-MS/MS analysis
[17] = target: T1, Nuclear receptor ROR-gamma; test: Inverse agonist activity at GST-tagged RORgammat LBD (unknown origin) using fluorescein-D22 co-activator peptide as substrate incubated for 1 hr by TR-FRET assay
Cytochrome P450 3A4 [18] = target: T5, Cytochrome P450 3A4; test: Inhibition of CYP3A4 in human liver microsomes using midazolam as substrate preincubated for 5 mins followed by NADPH addition measured after 10 mins by LC-MS/MS analysis
[19] = Solubility of the compound at pH 2.1; details: buffer
[20] = Solubility of the compound at pH 7.4; details: buffer
[21] = Solubility of the compound at pH 4; details: buffer

Sequence of Cytochrome P450 2D6 (P10635 whole entry): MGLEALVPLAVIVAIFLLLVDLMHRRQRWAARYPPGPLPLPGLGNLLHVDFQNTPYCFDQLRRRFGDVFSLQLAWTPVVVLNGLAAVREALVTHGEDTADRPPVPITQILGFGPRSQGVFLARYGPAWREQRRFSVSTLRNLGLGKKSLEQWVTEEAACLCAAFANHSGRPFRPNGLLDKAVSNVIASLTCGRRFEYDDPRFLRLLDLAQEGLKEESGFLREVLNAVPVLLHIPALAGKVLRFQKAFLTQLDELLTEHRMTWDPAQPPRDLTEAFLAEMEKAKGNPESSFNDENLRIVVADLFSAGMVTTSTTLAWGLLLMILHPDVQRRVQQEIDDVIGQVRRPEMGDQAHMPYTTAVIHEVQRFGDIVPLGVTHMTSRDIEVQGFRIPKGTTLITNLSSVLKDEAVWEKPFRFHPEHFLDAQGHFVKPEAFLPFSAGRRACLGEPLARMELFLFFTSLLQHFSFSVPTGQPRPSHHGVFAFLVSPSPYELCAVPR
Sequence of Cytochrome P450 2C9 (P11712 whole entry): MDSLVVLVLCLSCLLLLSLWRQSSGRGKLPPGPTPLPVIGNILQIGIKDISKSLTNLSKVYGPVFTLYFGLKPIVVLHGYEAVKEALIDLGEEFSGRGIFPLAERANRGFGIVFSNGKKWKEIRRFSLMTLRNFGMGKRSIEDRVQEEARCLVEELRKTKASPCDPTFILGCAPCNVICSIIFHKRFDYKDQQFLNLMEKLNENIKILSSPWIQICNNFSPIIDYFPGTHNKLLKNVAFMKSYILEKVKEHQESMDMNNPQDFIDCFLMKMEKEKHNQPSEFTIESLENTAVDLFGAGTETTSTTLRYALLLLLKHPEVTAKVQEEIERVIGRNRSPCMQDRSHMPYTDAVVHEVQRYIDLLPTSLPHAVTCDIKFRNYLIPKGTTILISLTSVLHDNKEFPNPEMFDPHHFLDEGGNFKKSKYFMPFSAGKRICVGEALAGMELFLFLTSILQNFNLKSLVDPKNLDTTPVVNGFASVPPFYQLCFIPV
Sequence of Cytochrome P450 2C19 (P33261 whole entry): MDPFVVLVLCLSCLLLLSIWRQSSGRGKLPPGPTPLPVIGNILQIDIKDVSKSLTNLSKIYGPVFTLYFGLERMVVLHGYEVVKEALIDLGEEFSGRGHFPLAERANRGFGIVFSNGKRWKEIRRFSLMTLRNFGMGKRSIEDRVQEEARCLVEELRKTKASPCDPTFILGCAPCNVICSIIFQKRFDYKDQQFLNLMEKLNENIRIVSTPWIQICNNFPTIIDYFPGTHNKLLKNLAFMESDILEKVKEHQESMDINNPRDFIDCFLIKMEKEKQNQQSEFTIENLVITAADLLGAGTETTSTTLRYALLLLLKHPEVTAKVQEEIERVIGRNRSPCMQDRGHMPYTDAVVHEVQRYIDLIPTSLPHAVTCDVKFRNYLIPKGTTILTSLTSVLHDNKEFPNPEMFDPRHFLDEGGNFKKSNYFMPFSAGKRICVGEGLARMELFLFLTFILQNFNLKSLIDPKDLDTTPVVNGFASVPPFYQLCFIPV
T5 sequence (P08684 whole entry, the tested form may be a part): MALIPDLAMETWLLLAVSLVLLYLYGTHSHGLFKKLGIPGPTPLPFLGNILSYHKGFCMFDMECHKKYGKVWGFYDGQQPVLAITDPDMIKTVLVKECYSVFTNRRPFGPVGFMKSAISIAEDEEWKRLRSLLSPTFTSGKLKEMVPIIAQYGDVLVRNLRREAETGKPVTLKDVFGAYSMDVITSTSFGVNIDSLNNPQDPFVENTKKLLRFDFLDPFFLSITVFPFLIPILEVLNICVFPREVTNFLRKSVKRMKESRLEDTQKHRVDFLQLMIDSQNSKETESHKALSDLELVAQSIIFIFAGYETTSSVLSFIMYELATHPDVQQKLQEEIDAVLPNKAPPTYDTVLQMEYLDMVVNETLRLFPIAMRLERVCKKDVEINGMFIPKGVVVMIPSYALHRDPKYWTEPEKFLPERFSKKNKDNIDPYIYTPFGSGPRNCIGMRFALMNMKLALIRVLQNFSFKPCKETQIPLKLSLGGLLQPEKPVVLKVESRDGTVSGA

| Compound | IC50 [1] [µM] | Tmax [2] [h] | Cmax [3] [µM] | remaining at 0.5 h, 1 µM [4] [%] | IC50 [5] [µM] | IC50 (Cytochrome P450 2D6) [µM] | IC50 (Cytochrome P450 2C19) [µM] | remaining at 0.5 h, 1 µM [6] [%] | clearance [7] [mL/min/kg] | bioavailability [8] [%] | IC50 (Cytochrome P450 1A2) [µM] | half-life [9] [h] | AUC(0-t) at 24 h [10] [µM·h] | IC50 (Cytochrome P450 2C9) [µM] | remaining at 0.5 h, 1 µM [11] [%] | Vd [12] [L/kg] | inhibition [13] [%] | inhibition [14] [%] | inhibition [15] [%] | IC50 (Cytochrome P450 3A4 [16]) [µM] | further results |
| --- | --- | --- | --- | --- | --- | --- | --- | --- | --- | --- | --- | --- | --- | --- | --- | --- | --- | --- | --- | --- | --- |
| O=C(O)c1ccc(-n2cc(C(=O)c3c(Cl)cccc3C(F)(F)F)c3c(F)cccc32)c(F)c1 | 0.016 | 0.5 | 17.5 | 76 | > 30 | > 50 | > 50 | 100 | 4.6 | 62 | > 50 | 2.7 | 46.5 | 20.3 | 78 | 1 | – | – | – | – | – |
| O=C(O)c1ccc(-n2cc(C(=O)c3c(Cl)cccc3C(F)(F)F)c3cccc(F)c32)cc1 | – | – | – | 100 | – | – | – | 88 | – | – | – | – | – | – | 88 | – | 55 | 18 | 46 | – | – |
| O=C(O)c1ccc(-n2cc(C(=O)c3c(Cl)cccc3C(F)(F)F)c3cccnc32)c(F)c1 | 0.015 | 0.5 | 12.1 | 73 | > 30 | > 50 | > 50 | 100 | 11 | 100 | > 50 | 3.2 | 35.1 | 17.2 | 87 | 2.4 | – | – | – | > 50 | – |
| O=C(O)c1ccc(-n2cc(C(=O)c3c(Cl)cccc3Cl)c3c(F)cccc32)cc1 | 0.076 | – | – | 78 | – | > 50 | > 50 | 100 | – | – | > 50 | – | – | > 50 | 100 | – | – | – | – | 49 | IC50 [17]: 0.025 µM; IC50 (Cytochrome P450 3A4 [18]): > 50 µM; solubility [19]: < 1 µM; solubility [20]: > 2000 µM; solubility [21]: < 1 µM |
| Cc1cccc(Cl)c1C(=O)c1cn(-c2ccc(C(=O)O)cc2)c2ccccc12 | 0.025 | 0.25 | 18.3 | 83 | > 30 | > 50 | > 50 | 89 | 9.6 | 45 | > 50 | 3.2 | 19.6 | 13.5 | 85 | 2.5 | 56 | 3 | 49 | – | IC50 (Cytochrome P450 3A4 [18]): > 50 µM; solubility [19]: 1 µM (≈ 0.39 µg/mL); solubility [20]: > 2000 µM; solubility [21]: 1 µM (≈ 0.39 µg/mL) |
| O=C(O)c1ccc(-n2cc(C(=O)c3c(Cl)cccc3Cl)c3ccccc32)c(F)c1 | – | 0.5 | 5.7 | 51 | > 30 | – | – | 92 | 21.2 | 52 | – | 1.8 | 9.1 | – | 91 | 2.8 | – | – | – | – | – |

— ChEMBL document CHEMBL4346735, “Discovery and pharmacological evaluation of indole derivatives as potent and selective RORγt inverse agonist for multiple autoimmune conditions” (Bioorg Med Chem Lett, 2019)
